Results as given in patent US20230000842A1, “METHODS OF TREATING CARTILAGE DISORDERS THROUGH INHIBITION OF CLK AND DYRK” (SAMUMED, LLC, priority 2019, published 2023).

Tests used:
CLK2 kinase = CLK2 kinase (Homo sapiens, UniProt P49760); assay: CLK2 kinase activity assay (Z-lyte FRET); assay type: biochemical; conditions: Z-lyte Ser/Thr 6 peptide, 60 μM ATP, 1 h at room temperature;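 note: FRET read-out as coumarin to fluorescein emission ratio, unphosphorylated peptide as 0% and phosphorylated peptide as 100% controls, duplicate reactions, non-linear regression fit of dose-response curves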
CLK3 kinase = CLK3 kinase (Homo sapiens, UniProt P49761); assay: CLK3 kinase activity assay (Z-lyte FRET); assay type: biochemical; conditions: Z-lyte Ser/Thr 18 peptide, 156 μM ATP, 1 h at room temperature;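 note: kinase activity read as coumarin/fluorescein emission ratio by FRET, unphosphorylated peptide as 0% and phosphorylated peptide as 100% control, values from non-linear regression of dose-response curves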
[1] = tested on: primary human mesenchymal stem cells (hMSCs); assay: Chondrogenesis screening using primary human mesenchymal stem cells; assay type: cell-based; conditions: Homo sapiens, Mesenchymal stem cells, hMSC chondrogenesis; for Emax: maximum activity relative to TGF-β3 (10 ng/mL) positive control, read-out: Max. Activity as % TGF-β3 activity; for EC50: concentration required to induce 50% levels of chondrogenesis with TGF-β3 as positive control, read-out: Conc (nM) of 50% TGF-β3 activity
Method in brief: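 Derived values are EC50 for 50% chondrogenesis, maximal activity and the dose giving it. These come from nodule area in passage 3–6 primary hMSCs, expressed as fold change over the mean of 3 same-plate DMSO wells, 2–3 replicates per concentration. TGF-β3 served as positive control.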

[2] = tested on: Wnt pathway activity (SW480 colon carcinoma cells stably expressing the Sp5-Luc reporter); assay: Wnt pathway activity screening assay (Sp5-Luc reporter gene assay); conditions: Homo sapiens, SW480, Table 4; SW480 cells stably expressing Sp5-Luc reporter, 10-point dose-response from 10 μM, 36 to 48 hours

Chain of CLK3 kinase (P49761 whole entry): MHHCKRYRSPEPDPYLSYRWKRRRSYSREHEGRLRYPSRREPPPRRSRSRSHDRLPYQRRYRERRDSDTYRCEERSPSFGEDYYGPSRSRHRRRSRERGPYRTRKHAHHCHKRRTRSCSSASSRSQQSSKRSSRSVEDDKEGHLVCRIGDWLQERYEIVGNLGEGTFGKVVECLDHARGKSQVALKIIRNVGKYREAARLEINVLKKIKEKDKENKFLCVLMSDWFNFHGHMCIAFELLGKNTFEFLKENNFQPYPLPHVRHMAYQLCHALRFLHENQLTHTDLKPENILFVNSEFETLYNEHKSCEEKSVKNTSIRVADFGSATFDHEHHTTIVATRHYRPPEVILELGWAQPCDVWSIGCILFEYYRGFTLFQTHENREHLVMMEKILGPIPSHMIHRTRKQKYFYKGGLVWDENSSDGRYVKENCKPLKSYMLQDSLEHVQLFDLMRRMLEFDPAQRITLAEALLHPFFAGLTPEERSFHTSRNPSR
Chain of CLK2 kinase (P49760 whole entry): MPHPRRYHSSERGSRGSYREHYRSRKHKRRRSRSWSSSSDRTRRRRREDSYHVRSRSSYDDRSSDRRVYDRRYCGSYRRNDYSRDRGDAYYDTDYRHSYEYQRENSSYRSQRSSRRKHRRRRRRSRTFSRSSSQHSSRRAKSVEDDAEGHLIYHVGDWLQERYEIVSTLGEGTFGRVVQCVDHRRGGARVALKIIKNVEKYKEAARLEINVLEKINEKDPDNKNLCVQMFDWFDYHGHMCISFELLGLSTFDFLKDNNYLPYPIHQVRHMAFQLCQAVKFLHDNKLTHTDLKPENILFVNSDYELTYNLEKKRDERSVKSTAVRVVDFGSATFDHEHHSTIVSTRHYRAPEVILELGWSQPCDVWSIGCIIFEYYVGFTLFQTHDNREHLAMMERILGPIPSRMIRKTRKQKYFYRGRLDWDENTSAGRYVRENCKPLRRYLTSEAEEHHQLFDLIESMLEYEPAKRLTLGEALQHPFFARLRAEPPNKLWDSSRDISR

SMILES | EC50 (CLK2 kinase) [nM] | EC50 (CLK3 kinase) [nM] | Emax [1] [%] | EC50 [2] [nM] | EC50 [1] [nM]
CC(C)CC(=O)Nc1cncc(-c2cnc3[nH]nc(-c4cc5c(-c6cc(F)cc(CNS(C)(=O)=O)c6)cncc5[nH]4)c3c2)c1 [compound 523] | 9 | 81 | 45.5 | 2510 | –
CC(C)CC(=O)Nc1cncc(-c2cc3c(-c4cc5c(-c6cc(F)cc(CNS(C)(=O)=O)c6)cncc5[nH]4)n[nH]c3cn2)c1 [compound 524] | 15 | 198 | 24.2 | > 10000 | –
CC(C)CC(=O)Nc1cncc(-c2ccc3[nH]nc(-c4cc5c(-c6cc(F)cc(CNS(C)(=O)=O)c6)nccc5[nH]4)c3n2)c1 [compound 525] | 8 | 38 | 33.1 | 479 | –
CS(=O)(=O)NCc1cc(F)cc(-c2cncc3[nH]c(-c4n[nH]c5ccc(-c6cncc(NC(=O)C7CC7)c6)nc45)cc23)c1 [compound 526] | 4 | 140 | 82.9 | 1300 | 10
CS(=O)(=O)NCc1cc(F)cc(-c2cncc3[nH]c(-c4n[nH]c5ccc(-c6cncc(NC(=O)C7CCC7)c6)cc45)cc23)c1 [compound 527] | 11 | 66 | 14.5 | 554 | –
CS(=O)(=O)NCc1cc(F)cc(-c2nccc3[nH]c(-c4n[nH]c5ncc(-c6cncc(NC(=O)C7CCC7)c6)cc45)cc23)c1 [compound 528] | 5 | 59 | 51.6 | 3640 | 300
CS(=O)(=O)NCc1cc(F)cc(-c2cncc3[nH]c(-c4n[nH]c5cnc(-c6cncc(NC(=O)C7CCC7)c6)cc45)cc23)c1 [compound 529] | 8 | 188 | 15.5 | > 10000 | –
CS(=O)(=O)NCc1cc(F)cc(-c2nccc3[nH]c(-c4n[nH]c5ccc(-c6cncc(NC(=O)Cc7ccccc7)c6)nc45)cc23)c1 [compound 530] | 17 | 151 | 110 | > 10000 | 10
CCNCc1cncc(-c2ccc3[nH]nc(-c4cc5c(-c6cc(F)cc(CNS(C)(=O)=O)c6)cncc5[nH]4)c3c2)c1 [compound 531] | 5 | 52 | 58 | > 10000 | –
CCNCc1cncc(-c2cnc3[nH]nc(-c4cc5c(-c6cc(F)cc(CNS(C)(=O)=O)c6)nccc5[nH]4)c3c2)c1 [compound 532] | 3 | 305 | 61.2 | > 10000 | 300
CS(=O)(=O)NCc1cc(F)cc(-c2nccc3[nH]c(-c4n[nH]c5cnc(-c6cncc(CNCC7CCCC7)c6)cc45)cc23)c1 [compound 534] | 4 | 471 | 52.3 | > 10000 | 30
CS(=O)(=O)NCc1cc(F)cc(-c2cncc3[nH]c(-c4n[nH]c5ncc(-c6cncc(CN7CCCCC7)c6)cc45)cc23)c1 [compound 535] | 6 | 53 | 22.7 | 1850 | –
CS(=O)(=O)NCc1cc(F)cc(-c2nccc3[nH]c(-c4n[nH]c5ccc(-c6cncc(CN7CCCCC7)c6)nc45)cc23)c1 [compound 536] | 5 | 79 | 50.1 | 1100 | 10
CS(=O)(=O)NCc1cc(F)cc(-c2nccc3[nH]c(-c4n[nH]c5ncc(-c6cncc(OCc7ccccc7)c6)cc45)cc23)c1 [compound 537] | 13 | 329 | 20.6 | 3990 | –
CS(=O)(=O)NCc1cc(F)cc(-c2cncc3[nH]c(-c4n[nH]c5ccc(-c6cncnc6)nc45)cc23)c1 [compound 538] | 2 | 58 | 106 | 1030 | 10
CN1CCCCN(C)c2nccc3[nH]c(nc23)-c2n[nH]c3ccc(cc23)-c2cncc(c2)C1 [compound 617] | 2 | 12 | 231 | 577 | 5000
c1cc2cc(c1)-c1cncc3[nH]c(nc13)-c1n[nH]c3ccc(cc13)-c1cncc(c1)CNC2 [compound 618] | 2 | 12 | 558 | 41.8 | 200
